Results from ChEMBL document CHEMBL1201862, “PubChem BioAssay data set” (2004).
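Cultured in 96-well plates, cells were exposed to test compound for 48 hours across five concentrations. At the GI50, growth is halved.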 Active and inactive are the calls of the source. No stated cut-off is given here; in the data, active = GI50 up to about 1.1 µM and inactive = higher.

Experiments:
Test in all cases: NCI anticancer screen, dose series, 48 h
HL-60 = test system: HL-60
CCRF-CEM = test system: CCRF-CEM
SK-OV-3 = test system: SK-OV-3
HCT-116 = test system: HCT-116
COLO 205 = test system: COLO 205
SNB-75 = test system: SNB-75
A498 = test system: A498
XF498 = test system: XF498
NCI-H226 = test system: NCI-H226
M14 = test system: M14
LXFL 529 = test system: LXFL 529
HOP-18 = test system: HOP-18
786-0 = test system: 786-0
MOLT-4 = test system: MOLT-4
ACHN = test system: ACHN
SK-MEL-5 = test system: SK-MEL-5
KM-20L2 = test system: KM-20L2
NCI-H522 = test system: NCI-H522
SNB-19 = test system: SNB-19
SF-539 = test system: SF-539
RPMI-8226 = test system: RPMI-8226
UACC-257 = test system: UACC-257
SN12C = test system: SN12C
IGROV-1 = test system: IGROV-1
SF-268 = test system: SF-268
A549 = test system: A549
M19-MEL = test system: M19-MEL
SW-620 = test system: SW-620
DMS-273 = test system: DMS-273
Malme-3M = test system: Malme-3M
DLD-1 = test system: DLD-1
SR = test system: SR
KM12 = test system: KM12
HOP-92 = test system: HOP-92
UO-31 = test system: UO-31
UACC-62 = test system: UACC-62
HT-29 = test system: HT-29
CAKI-1 = test system: CAKI-1
RXF 631 = test system: RXF 631
TK-10 = test system: TK-10
SNB-78 = test system: SNB-78
OVCAR-3 = test system: OVCAR-3
U-251 = test system: U-251
LOX IMVI = test system: LOX IMVI
SK-MEL-28 = test system: SK-MEL-28
NCI-H23 = test system: NCI-H23
HOP-62 = test system: HOP-62
SF-295 = test system: SF-295
NCI-H460 = test system: NCI-H460
OVCAR-8 = test system: OVCAR-8
K562 = test system: K562
RXF 393 = test system: RXF 393
OVCAR-4 = test system: OVCAR-4
EKVX = test system: EKVX
DMS-114 = test system: DMS-114
OVCAR-5 = test system: OVCAR-5
SK-MEL-2 = test system: SK-MEL-2

Measured: GI50

Cc1cn(C2C=CC(=O)C(C)O2)c(=O)[nH]c1=O (configuration not stated)
inactive: HL-60 14.7 µM | CCRF-CEM 6.07 µM | SK-OV-3 33.8 µM | HCT-116 12.2 µM | COLO 205 17.5 µM | SNB-75 15.5 µM | A498 38.1 µM | XF498 13.5 µM | NCI-H226 19.5 µM | M14 15.3 µM | LXFL 529 14.8 µM | HOP-18 15 µM | 786-0 18 µM | MOLT-4 18 µM | ACHN 17.5 µM | SK-MEL-5 14.7 µM | KM-20L2 16.3 µM | NCI-H522 16.6 µM | SNB-19 21 µM | SF-539 18.7 µM | RPMI-8226 20.5 µM | UACC-257 14 µM | SN12C 15.9 µM | IGROV-1 18 µM | SF-268 18.2 µM | A549 39 µM | M19-MEL 15.8 µM | SW-620 15.1 µM | DMS-273 18.1 µM | Malme-3M 13.2 µM | DLD-1 14.1 µM | SR 18.3 µM | KM12 16.1 µM | HOP-92 15.9 µM | UO-31 14.5 µM | UACC-62 15.7 µM | HT-29 17.1 µM | CAKI-1 16.7 µM | RXF 631 15.2 µM | TK-10 15.1 µM | SNB-78 16.7 µM | OVCAR-3 17.4 µM | U-251 15.3 µM | LOX IMVI 13.2 µM | SK-MEL-28 14.9 µM | NCI-H23 18.1 µM | HOP-62 20.6 µM | SF-295 17.5 µM | NCI-H460 17.9 µM | OVCAR-8 18.6 µM | K562 10.6 µM

CCCCCCC(C)CCCCCCCCCCC(=O)O (configuration not stated)
inactive: HL-60 > 100 µM | CCRF-CEM > 100 µM | SK-OV-3 > 100 µM | HCT-116 93.5 µM | COLO 205 > 100 µM | SNB-75 > 100 µM | A498 > 100 µM | XF498 > 100 µM | RXF 393 > 100 µM | NCI-H226 > 100 µM | M14 > 100 µM | LXFL 529 > 100 µM | HOP-18 > 100 µM | 786-0 > 100 µM | OVCAR-4 > 100 µM | MOLT-4 > 100 µM | EKVX > 100 µM | ACHN > 100 µM | SK-MEL-5 > 100 µM | KM-20L2 > 100 µM | NCI-H522 > 100 µM | SNB-19 > 100 µM | SF-539 > 100 µM | RPMI-8226 > 100 µM | UACC-257 > 100 µM | SN12C > 100 µM | IGROV-1 > 100 µM | SF-268 > 100 µM | A549 > 100 µM | DMS-114 > 100 µM | OVCAR-5 > 100 µM | M19-MEL > 100 µM | SW-620 > 100 µM | DMS-273 > 100 µM | Malme-3M > 100 µM | DLD-1 > 100 µM | SR > 100 µM | KM12 64.7 µM | HOP-92 > 100 µM | UO-31 > 100 µM | UACC-62 > 100 µM | HT-29 > 100 µM | CAKI-1 > 100 µM | RXF 631 > 100 µM | TK-10 > 100 µM | OVCAR-3 > 100 µM | U-251 > 100 µM | LOX IMVI > 100 µM | SK-MEL-28 > 100 µM | NCI-H23 > 100 µM | HOP-62 > 100 µM | SK-MEL-2 > 100 µM | SF-295 > 100 µM | NCI-H460 > 100 µM | OVCAR-8 > 100 µM | K562 > 100 µM
